Assay results taken from US12065468B2, “Heme-binding small peptide” (priority 2021, dated 2024).
Entries after “also recorded” stand apart in the source; their conditions may differ.

Experiments:
[1] = test system: Human red blood cells (hRBC); experiment: Haemolysis assay; type: cell-based; conditions: 1.5 h at 37° C., 4% hRBC; listed as L-NCR247
Method: Haemolysis assay: Standard methods of hemolysis assay as previously published was followed^96. Human red blood cells (hRBC) were washed three times with phosphate-buffered saline (PBS: 10 mM Na2HPO4, 1.76 mM K2HPO4, pH 7.4, containing […], and 2.7 mM KCl). Two-fold serial dilutions of the peptide solutions were then added to 50 μl aliquots of hRBC in PBS to adjust a final volume to 100 μl and hRBC concentration to 4% (v/v) in each well of a 96-well plate. The suspension was incubated for 1.5 h at 37° C. under stirring at 1000 rpm. The plates were centrifuged at 2000 g for 5 min. Supernatant aliquots of 50 μl were transferred into flat-bottomed 96-well microplates, and the release of hemoglobin was monitored by measuring the absorbance at 405 nm in a microplate reader. hRBC in PBS (0% lysis control) and 0.1% Triton X-100 (100% lysis control) were used as negative and positive controls, respectively. Hemolytic activity was expressed as a percentage of hemolysis calculated according to the following equation: Hemolysis (%)=(OD405nm sample—OD405nm 0% lysis control)/(OD405nm 100% lysis control−OD405nm 0% lysis control)*100.

HEK-293 = experiment: Cytotoxic activity assay (MTT); type: cell-based, Human; conditions: 100 μM, 24 h, listed as L-NCR247
Method: Cytotoxic activity assay: Human embryonic kidney (HEK-293-ATCC-CRL-1573) cell lines were cultured in Dulbecco's Modified Eagle Medium (DMEM) supplemented with 10% Fetal Bovine Serum (FBS). When cells reached 10^4-10^5 cells per well, cells were supplemented with fresh DMEM without FBS, and then treated with 100 μM of NCR247 (L and D). After treatment for 24 h, MTT (Abeam, United Kingdom) stock solution was added to each well at a final concentration of 500 μg/mL and incubated in the dark for 4 h at 37° C. The absorbance at 570 nm was measured in the Tecan plate reader.

[2] = Peroxidase assay of heme on TMB; type: biochemical; conditions: 5 μM NCR247 + 5 μM heme
Method: Peroxidase assay: Pierce TMB Substrate Kit was used to measure the peroxidase activity of the heme and equimolar NCR247 was added to heme according to the manufacturer's instructions. In short, 100 μL of TMB substrate solution (1:1 of TMB substrate and Peroxide solution) was added to 96 well black, polystyrene flat bottomed, non-treated, sterile plates. 5 μM heme or 5 μM NCR247+5 μM heme was added to the wells and the progression of the reaction was measured in a Tecan Spark™ plate reader. UV-Vis absorption values at 370 nm and 652 nm are noted every minute over a time period of 16 mins.

Cytochrome c = experiment: UV-Vis test of heme sequestration from Cytochrome c; type: binding; conditions: excess NCR247
Method: FIG. 13. […] The absorption spectrum of Cytochrome c remains unaltered even after addition of excess NCR247.
(§1) UV-VIS spectroscopy: All absorption spectra were collected in a Tecan Spark™ 10 M microplate reader using black polystyrene 96-well plates. Absorbance from 300 nm to 700 nm was recorded with a 5 nm interval after an initial shaking at 100 rpm for 15 secs. Heme binding to synthesized peptide: Water (pH 7.4) was used in all reactions and was first added to the wells. Peptides solubilized in water were added and then heme solubilized in 0.1 M NaOH was added, mixed thoroughly and measurements were taken immediately. Peptide and heme volume were kept to a maximum of 5 ul in volume. For all the absorption curves (except Extended FIG. 3a) […] was used. The same was also repeated with 0.1 M Tris buffer (pH 7.4) as a base buffer instead of water.

Aβ (1-42)-heme complex = molecular target: T1, Aβ (1-42)-heme complex (Homo sapiens, UniProt P05067); experiment: Peroxidase assay of Aβ-heme complex on TMB; type: biochemical; conditions: equimolar addition of NCR247
T1 construct: equimolar addition of NCR247 to the Aβ (1-42) amyloid peptide-heme complex; purchased Genscript

ctrA = experiment: qRT-PCR of ctrA; type: cell-based, Sinorhizobium meliloti; conditions: 2 μM, 30 mins; listed as L-NCR247
Method: FIG. 16. […] The data are expressed as starting quantities (SQ) of respective mRNAs normalized to the control gene SMc00128 and are presented as average of three technical replicates
RNA isolation and qRT-PCR analysis: Cells were grown in LB until they reached an O.D.600 nm of 0.2. Then cells were spun down and suspended in minimal media with or without appropriate FeSO4 concentrations for 1 hour. NCR247 was then added and 5 ml of appropriate cultures were spun down at given time intervals. Total RNA was extracted using Trizol™ (Thermo Fisher Scientific) method. Qiagen RNeasy™ kit was used to purify the RNA. On-column DNA removal was carried out using DNase I from NEB. 500 ng of each RNA sample was used to make cDNA using the iScript™ cDNA synthesis kit (Biorad). qRT-PCRs were performed as described previously^86. The standard curve method was used for relative quantification. In short, a standard curve was generated for each gene of interest (including SMc00128) by setting up qpCR reactions to amplify increasing amounts of S. meliloti Rm 1021 genomic DNA. […] This curve was then used for extrapolating relative expression level of each gene of interest in a particular sample to obtain the starting quantities (SQ). […] These normalized values are then expressed as an average of triplicates, with standard deviation (s.d.) represented by the error bars. […]

Aβ-heme complex = molecular target: T2, Aβ-heme complex (Homo sapiens, UniProt P05067); experiment: UV-Vis spectrum of Aβ-heme complex with NCR247; type: binding
T2 construct: equimolar addition of NCR247 to the Aβ (1-42) amyloid peptide-heme complex; purchased Genscript
Method: FIG. 4. […] In a, b and e, data are presented as mean of three independent replicates ±s.d. In a and b ****P<0.0001 vs untreated sample; two-way analysis of variance (ANOVA) with multiple comparisons.
as §1

Candida albicans = experiment: C. albicans biofilm formation; type: cell-based
Z-ring (FtsZ-GFP) = experiment: Z-ring formation, FtsZ-GFP fluorescent microscopy; type: cell-based, Sinorhizobium meliloti; conditions: 2 μM, 200 mins; listed as L-NCR247
Method: FIG. 15. […] Visualization of Z-ring formation during cell division by FtsZ-GFP labeled cells using fluorescent microscopy. Data indicates percentage of cells displaying fully formed Z-rings when synchronized and treated with upon treatment with 2 μM of L or D-NCR247 for 200 mins. […] Data are presented as average of three biological replicates ±s.d.
Since NCR247 treatment leads to gene expression change in several genes of the CtrA regulon, we investigated the CtrA regulon and the cell division inhibition role of NCR247. […] In addition, this phenotype is retained in a peptide transporter bacA mutant indicating cell division inhibition happens due to protein-peptide interaction outside the cytoplasm.

T2 sequence (P05067 672-713, one chain of several): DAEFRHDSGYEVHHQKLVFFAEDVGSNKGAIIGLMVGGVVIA
T1 sequence (P05067 672-713 limits assumed, one chain of several): as the sequence (P05067 672-713, one chain of several) above

RNGCIVDPRCPYQQCRRPLYCRRR [NCR247]
haemolytic activity [1]: did not detect haemolytic activities; also recorded: negligible hemolysis | cytotoxicity (HEK-293): negligible cytotoxicity; also recorded: negligible hemolysis | peroxidase activity of heme [2]: intrinsic peroxidase activity of heme is quenched | sequestration of heme from Cytochrome c (Cytochrome c): cannot sequester cytochrome heme; also recorded: inability of NCR247 to sequester heme from Cytochrome c | peroxidase activity of Aβ (1-42)-heme complex (Aβ (1-42)-heme complex): quenches its peroxidase activity | expression of ctrA (ctrA): lowers the expression of CtrA; also recorded: decrease in expression of ctrA | removal of heme from Aβ-heme complex (Aβ-heme complex): can strip the heme out of the Aβ-heme complex | C. albicans biofilm formation (Candida albicans): interferes with the ability of the opportunistic fungal pathogen Candida albicans to form biofilms; also recorded: can inhibit Candida albicans biofilms | formation of Z-ring (Z-ring (FtsZ-GFP)): results in inhibition of assembly of the Z-ring; also recorded: greatly reduced
